Assay results published in the kinase profiling compilation of Christmann-Franck et al. (2016).

Legend:
Assay in all cases: radiometric filter-binding kinase assay, Kinase HotSpot
Settings in all cases: compound 0.5 µM; ATP 10 µM
ROCK1 (human) = ROCK1 (human) (UniProt Q13464)
PTK2 (human) = PTK2 (human) (UniProt Q05397)
CSF1R (human) = CSF1R (human) (UniProt P07333)
MAP3K10 (human) = MAP3K10 (human) (UniProt Q02779)
MERTK (human) = MERTK (human) (UniProt Q12866)
DYRK2 (human) = DYRK2 (human) (UniProt Q92630)
PRKCI (human) = PRKCI (human) (UniProt P41743)
MARK1 (human) = MARK1 (human) (UniProt Q9P0L2)
CAMK1 (human) = CAMK1 (human) (UniProt Q14012)
Sequence of CAMK1 (human) (Q14012 whole entry, looked up): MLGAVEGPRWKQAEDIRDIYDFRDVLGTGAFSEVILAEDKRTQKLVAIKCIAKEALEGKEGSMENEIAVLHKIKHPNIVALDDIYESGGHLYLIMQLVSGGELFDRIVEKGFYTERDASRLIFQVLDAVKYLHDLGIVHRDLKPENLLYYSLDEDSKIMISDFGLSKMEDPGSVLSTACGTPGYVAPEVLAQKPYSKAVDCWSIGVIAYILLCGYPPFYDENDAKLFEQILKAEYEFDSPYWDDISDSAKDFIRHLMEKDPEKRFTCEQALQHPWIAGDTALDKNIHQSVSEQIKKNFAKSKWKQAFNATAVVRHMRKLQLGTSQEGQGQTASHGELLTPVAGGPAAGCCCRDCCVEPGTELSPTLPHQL

CDK1 CCNB1 (human) = CDK1 CCNB1 (human) (UniProt P06493+P14635)
CDK6 CCND3 (human) = CDK6 CCND3 (human) (UniProt P30281+Q00534)
FGFR2 (human) = FGFR2 (human) (UniProt P21802)
PRKCE (human) = PRKCE (human) (UniProt Q02156)
TAOK1 (human) = TAOK1 (human) (UniProt Q7L7X3)
MAP3K14 (human) = MAP3K14 (human) (UniProt Q99558)
TSSK2 (human) = TSSK2 (human) (UniProt Q96PF2)
PAK3 (human) = PAK3 (human) (UniProt O75914)
TTK (human) = TTK (human) (UniProt P33981)
ERBB4 (human) = ERBB4 (human) (UniProt Q15303)
GRK7 (human) = GRK7 (human) (UniProt Q8WTQ7)
TNK2 (human) = TNK2 (human) (UniProt Q07912)
RIPK2 (human) = RIPK2 (human) (UniProt O43353)
MAPK11 (human) = MAPK11 (human) (UniProt Q15759)
MAPKAPK5 (human) = MAPKAPK5 (human) (UniProt Q8IW41)
AURKA (human) = AURKA (human) (UniProt O14965)
MAP3K5 (human) = MAP3K5 (human) (UniProt Q99683)
CDC42BPA (human) = CDC42BPA (human) (UniProt Q5VT25)
MYLK2 (human) = MYLK2 (human) (UniProt Q9H1R3)
TGFBR2 (human) = TGFBR2 (human) (UniProt P37173)
IRAK1 (human) = IRAK1 (human) (UniProt P51617)
CDK5 CDK5R1 p35 (human) = CDK5 CDK5R1 p35 (human) (UniProt Q00535+Q15078)
CAMKK2 (human) = CAMKK2 (human) (UniProt Q96RR4)
Sequence of CAMKK2 (human) (Q96RR4 whole entry, looked up): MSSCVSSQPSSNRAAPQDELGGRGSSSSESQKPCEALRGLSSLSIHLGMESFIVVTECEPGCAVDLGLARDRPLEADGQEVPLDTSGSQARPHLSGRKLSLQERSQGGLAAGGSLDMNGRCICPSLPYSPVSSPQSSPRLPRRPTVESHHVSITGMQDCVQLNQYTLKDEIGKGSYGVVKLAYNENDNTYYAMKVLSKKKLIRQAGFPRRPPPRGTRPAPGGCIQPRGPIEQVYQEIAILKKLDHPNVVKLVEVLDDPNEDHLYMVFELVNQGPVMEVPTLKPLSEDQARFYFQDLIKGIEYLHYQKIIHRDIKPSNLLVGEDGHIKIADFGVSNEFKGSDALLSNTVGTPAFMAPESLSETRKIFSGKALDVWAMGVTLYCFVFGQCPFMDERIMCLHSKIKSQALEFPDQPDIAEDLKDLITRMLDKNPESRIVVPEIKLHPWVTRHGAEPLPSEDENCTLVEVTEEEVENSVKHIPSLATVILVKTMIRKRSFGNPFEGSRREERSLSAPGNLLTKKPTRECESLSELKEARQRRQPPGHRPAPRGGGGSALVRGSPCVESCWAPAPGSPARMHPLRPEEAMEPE

MAPKAPK3 (human) = MAPKAPK3 (human) (UniProt Q16644)
CDK9 CCNK (human) = CDK9 CCNK (human) (UniProt O75909+P50750)
Sequence of CDK9 CCNK (human) (O75909 whole entry, looked up): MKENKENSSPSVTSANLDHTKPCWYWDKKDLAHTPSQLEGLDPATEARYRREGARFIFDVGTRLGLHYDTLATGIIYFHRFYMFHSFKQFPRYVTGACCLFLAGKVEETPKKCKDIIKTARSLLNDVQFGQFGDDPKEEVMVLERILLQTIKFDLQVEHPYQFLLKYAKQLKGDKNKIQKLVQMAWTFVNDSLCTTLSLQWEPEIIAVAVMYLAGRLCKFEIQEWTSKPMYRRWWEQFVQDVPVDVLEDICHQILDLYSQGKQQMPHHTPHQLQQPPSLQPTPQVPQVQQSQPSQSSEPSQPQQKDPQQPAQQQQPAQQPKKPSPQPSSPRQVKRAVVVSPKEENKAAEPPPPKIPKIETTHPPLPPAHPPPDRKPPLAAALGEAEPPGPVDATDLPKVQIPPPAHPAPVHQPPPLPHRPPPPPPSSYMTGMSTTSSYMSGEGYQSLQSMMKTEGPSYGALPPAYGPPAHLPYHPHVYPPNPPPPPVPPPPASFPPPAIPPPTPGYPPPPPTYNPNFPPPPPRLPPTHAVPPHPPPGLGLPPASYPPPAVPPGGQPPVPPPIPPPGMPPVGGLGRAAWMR
Sequence of CDK9 CCNK (human) (P50750 whole entry, looked up): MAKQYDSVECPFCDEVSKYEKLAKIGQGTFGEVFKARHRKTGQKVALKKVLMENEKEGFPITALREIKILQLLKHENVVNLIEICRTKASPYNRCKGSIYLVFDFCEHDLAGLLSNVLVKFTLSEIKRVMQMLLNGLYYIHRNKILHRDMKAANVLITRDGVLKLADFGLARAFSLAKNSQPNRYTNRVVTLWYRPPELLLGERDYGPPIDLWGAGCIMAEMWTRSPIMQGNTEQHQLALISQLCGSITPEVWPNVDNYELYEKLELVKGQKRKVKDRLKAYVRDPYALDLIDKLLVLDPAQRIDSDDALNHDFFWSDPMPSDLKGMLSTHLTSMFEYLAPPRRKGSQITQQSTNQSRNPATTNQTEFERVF

PKN1 (human) = PKN1 (human) (UniProt Q16512)
NEK11 (human) = NEK11 (human) (UniProt Q8NG66)
Sequence of NEK11 (human) (Q8NG66 whole entry, looked up): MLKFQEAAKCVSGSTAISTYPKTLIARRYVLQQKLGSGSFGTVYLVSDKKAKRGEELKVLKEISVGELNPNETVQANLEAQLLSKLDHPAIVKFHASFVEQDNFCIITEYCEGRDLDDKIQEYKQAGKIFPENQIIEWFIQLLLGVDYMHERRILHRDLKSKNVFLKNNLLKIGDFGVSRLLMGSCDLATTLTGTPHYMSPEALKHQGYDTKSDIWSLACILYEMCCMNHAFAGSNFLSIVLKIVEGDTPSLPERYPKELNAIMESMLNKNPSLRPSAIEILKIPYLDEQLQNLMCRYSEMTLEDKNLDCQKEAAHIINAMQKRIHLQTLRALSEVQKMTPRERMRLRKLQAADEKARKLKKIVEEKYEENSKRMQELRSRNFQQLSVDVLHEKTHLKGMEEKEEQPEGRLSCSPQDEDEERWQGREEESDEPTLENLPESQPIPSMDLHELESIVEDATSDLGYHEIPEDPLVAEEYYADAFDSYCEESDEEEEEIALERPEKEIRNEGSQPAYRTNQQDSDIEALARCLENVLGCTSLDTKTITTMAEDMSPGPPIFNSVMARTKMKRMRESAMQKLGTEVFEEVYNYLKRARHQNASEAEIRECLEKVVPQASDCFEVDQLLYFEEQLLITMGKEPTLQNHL

PKN2 (human) = PKN2 (human) (UniProt Q16513)
EPHB1 (human) = EPHB1 (human) (UniProt P54762)
CDK7 CCNH MNAT1 (human) = CDK7 CCNH MNAT1 (human) (UniProt P50613+P51948+P51946)
CDK2 CCNA2 (human) = CDK2 CCNA2 (human) (UniProt P24941+P20248)
PDGFRB (human) = PDGFRB (human) (UniProt P09619)
Sequence of PDGFRB (human) (P09619 whole entry, looked up): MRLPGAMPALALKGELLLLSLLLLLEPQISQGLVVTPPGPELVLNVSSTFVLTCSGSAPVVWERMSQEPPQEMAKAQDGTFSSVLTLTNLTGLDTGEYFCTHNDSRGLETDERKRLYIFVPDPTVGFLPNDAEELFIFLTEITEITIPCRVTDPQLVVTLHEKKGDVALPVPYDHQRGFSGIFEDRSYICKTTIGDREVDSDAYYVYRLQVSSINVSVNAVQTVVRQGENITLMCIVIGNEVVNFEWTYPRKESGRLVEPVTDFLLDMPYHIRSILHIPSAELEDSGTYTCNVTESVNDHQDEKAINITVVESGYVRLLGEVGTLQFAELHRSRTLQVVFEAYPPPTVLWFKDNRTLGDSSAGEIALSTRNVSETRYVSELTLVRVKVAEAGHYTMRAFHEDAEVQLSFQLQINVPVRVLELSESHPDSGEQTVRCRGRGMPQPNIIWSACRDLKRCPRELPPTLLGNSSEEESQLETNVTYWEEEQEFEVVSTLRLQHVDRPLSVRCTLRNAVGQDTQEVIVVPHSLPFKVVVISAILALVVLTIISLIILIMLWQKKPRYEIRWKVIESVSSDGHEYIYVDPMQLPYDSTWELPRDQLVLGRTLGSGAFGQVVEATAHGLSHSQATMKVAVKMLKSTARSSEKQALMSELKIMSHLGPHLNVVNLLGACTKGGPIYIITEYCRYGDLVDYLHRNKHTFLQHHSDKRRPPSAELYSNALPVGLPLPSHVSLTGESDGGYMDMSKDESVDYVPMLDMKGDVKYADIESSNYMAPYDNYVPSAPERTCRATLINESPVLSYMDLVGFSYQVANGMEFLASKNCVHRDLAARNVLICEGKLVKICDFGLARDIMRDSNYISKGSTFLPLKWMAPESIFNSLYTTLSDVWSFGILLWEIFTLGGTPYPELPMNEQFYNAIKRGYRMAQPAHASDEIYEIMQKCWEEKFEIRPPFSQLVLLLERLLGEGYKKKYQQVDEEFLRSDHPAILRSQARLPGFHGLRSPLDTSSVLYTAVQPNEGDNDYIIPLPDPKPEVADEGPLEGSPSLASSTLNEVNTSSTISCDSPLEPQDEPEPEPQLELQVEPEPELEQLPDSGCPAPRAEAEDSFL

Sequence of ROCK1 (human) (Q13464 whole entry, looked up): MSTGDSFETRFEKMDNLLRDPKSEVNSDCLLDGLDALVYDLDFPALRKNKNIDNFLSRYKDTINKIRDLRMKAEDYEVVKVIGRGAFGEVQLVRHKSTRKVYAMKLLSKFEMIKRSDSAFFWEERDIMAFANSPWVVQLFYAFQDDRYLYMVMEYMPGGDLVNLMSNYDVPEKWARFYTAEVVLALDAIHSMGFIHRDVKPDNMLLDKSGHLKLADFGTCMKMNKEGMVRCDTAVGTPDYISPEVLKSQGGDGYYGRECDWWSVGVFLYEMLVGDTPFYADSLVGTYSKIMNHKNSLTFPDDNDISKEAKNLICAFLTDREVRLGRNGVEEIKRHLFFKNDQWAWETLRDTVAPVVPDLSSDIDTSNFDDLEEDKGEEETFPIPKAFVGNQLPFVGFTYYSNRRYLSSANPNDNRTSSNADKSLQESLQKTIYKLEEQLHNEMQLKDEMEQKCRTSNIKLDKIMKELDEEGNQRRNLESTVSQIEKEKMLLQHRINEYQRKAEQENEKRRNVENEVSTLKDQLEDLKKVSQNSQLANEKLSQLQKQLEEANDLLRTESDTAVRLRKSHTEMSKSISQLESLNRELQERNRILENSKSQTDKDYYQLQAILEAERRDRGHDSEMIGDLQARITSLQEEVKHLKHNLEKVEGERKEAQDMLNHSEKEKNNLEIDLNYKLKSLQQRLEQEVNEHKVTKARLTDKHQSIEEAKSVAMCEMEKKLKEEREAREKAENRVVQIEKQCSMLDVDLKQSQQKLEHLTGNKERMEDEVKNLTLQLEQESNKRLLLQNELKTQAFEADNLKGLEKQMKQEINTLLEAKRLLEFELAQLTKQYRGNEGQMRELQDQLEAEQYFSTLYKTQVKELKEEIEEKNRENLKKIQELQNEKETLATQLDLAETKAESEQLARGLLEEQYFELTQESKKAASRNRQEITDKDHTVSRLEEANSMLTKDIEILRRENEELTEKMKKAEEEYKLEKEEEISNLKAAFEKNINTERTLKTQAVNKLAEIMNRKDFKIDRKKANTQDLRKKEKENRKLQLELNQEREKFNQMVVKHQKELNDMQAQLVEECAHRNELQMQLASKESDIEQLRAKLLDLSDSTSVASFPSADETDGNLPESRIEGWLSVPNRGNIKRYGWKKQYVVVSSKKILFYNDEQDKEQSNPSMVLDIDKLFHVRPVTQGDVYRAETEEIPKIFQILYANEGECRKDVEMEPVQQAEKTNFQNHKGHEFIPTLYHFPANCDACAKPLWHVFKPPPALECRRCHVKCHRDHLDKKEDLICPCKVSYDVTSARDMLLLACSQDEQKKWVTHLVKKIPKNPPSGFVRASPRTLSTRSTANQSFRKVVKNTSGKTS

Row | SMILES | residual activity (ROCK1 (human)) [%] | residual activity (PTK2 (human)) [%] | residual activity (CSF1R (human)) [%] | residual activity (MAP3K10 (human)) [%] | residual activity (MERTK (human)) [%] | residual activity (DYRK2 (human)) [%] | residual activity (PRKCI (human)) [%] | residual activity (MARK1 (human)) [%] | residual activity (PRKCE (human)) [%] | residual activity (TAOK1 (human)) [%] | residual activity (MAP3K14 (human)) [%] | residual activity (TSSK2 (human)) [%] | residual activity (TTK (human)) [%] | residual activity (GRK7 (human)) [%] | residual activity (RIPK2 (human)) [%] | residual activity (MAPK11 (human)) [%] | residual activity (MAPKAPK5 (human)) [%] | residual activity (AURKA (human)) [%] | residual activity (MAP3K5 (human)) [%] | residual activity (CDC42BPA (human)) [%] | other results
1 | COc1ccc2c(c1)/C(=C/c1cnc[nH]1)C(O)=N2 | 96 | 87.9 | 88.7 | 92.9 | 84.7 | 76.9 | 96.9 | 50.4 | 99 | 82.3 | 96.9 | 97.3 | 59.9 | 99.7 | 90 | 103 | 95.2 | 69 | 103 | 98.5 | residual activity (CAMK1 (human)): 103%; residual activity (CDK1 CCNB1 (human)): 35.9%; residual activity (CDK6 CCND3 (human)): 28%; residual activity (FGFR2 (human)): 84%; residual activity (PAK3 (human)): 99.2%; residual activity (ERBB4 (human)): 106%; residual activity (TNK2 (human)): 92.6%; residual activity (MYLK2 (human)): 21%; residual activity (TGFBR2 (human)): 107%; residual activity (IRAK1 (human)): 101%; residual activity (CDK5 CDK5R1 p35 (human)): -0.369%; residual activity (CAMKK2 (human)): 89.5%; residual activity (MAPKAPK3 (human)): 102%; residual activity (CDK9 CCNK (human)): 59.4%; residual activity (PKN1 (human)): 87.4%; residual activity (NEK11 (human)): 84.8%; residual activity (PKN2 (human)): 90.8%; residual activity (EPHB1 (human)): 92.2%; residual activity (CDK7 CCNH MNAT1 (human)): 84.2%
2 | C[C@@H]1CCN(C(=O)CC#N)C[C@@H]1N(C)c1ncnc2[nH]ccc12 | 90.1 | 103 | 101 | 105 | 114 | 112 | 103 | 119 | 98.5 | 99.9 | 107 | 87.9 | 108 | 102 | 113 | 103 | 97.3 | 84.1 | 97.8 | 110 | residual activity (CAMK1 (human)): 99.3%; residual activity (CDK1 CCNB1 (human)): 90.8%; residual activity (CDK6 CCND3 (human)): 110%; residual activity (FGFR2 (human)): 91.7%; residual activity (CDK2 CCNA2 (human)): 89.5%; residual activity (PAK3 (human)): 105%; residual activity (ERBB4 (human)): 100%; residual activity (TNK2 (human)): 87.1%; residual activity (MYLK2 (human)): 99%; residual activity (TGFBR2 (human)): 98.8%; residual activity (IRAK1 (human)): 93.9%; residual activity (CDK5 CDK5R1 p35 (human)): 99.5%; residual activity (CAMKK2 (human)): 97.7%; residual activity (MAPKAPK3 (human)): 100%; residual activity (CDK9 CCNK (human)): 102%; residual activity (PKN1 (human)): 16.5%; residual activity (NEK11 (human)): 91.7%; residual activity (EPHB1 (human)): 106%; residual activity (CDK7 CCNH MNAT1 (human)): 119%
3 | CO[C@@H]1[C@H](N(C)C(=O)c2ccccc2)C[C@H]2O[C@]1(C)n1c3ccccc3c3c4c(c5c6ccccc6n2c5c31)C(=O)NC4 | 85.3 | 87.4 | 6.65 | 3.15 | 78.7 | 108 | 96.4 | 4.09 | 10.7 | 60.8 | 113 | 89.1 | 55 | 15.5 | 82.8 | 97.6 | 92 | 4.48 | 101 | 96 | residual activity (PDGFRB (human)): 14.8%; residual activity (CDK2 CCNA2 (human)): 66.6%; residual activity (TGFBR2 (human)): 99.1%; residual activity (IRAK1 (human)): 86.3%; residual activity (CDK5 CDK5R1 p35 (human)): 74.1%; residual activity (CAMKK2 (human)): 3.9%; residual activity (MAPKAPK3 (human)): 91.5%; residual activity (CDK9 CCNK (human)): 71%; residual activity (PKN1 (human)): 1.37%; residual activity (PKN2 (human)): 11.4%
4 | COc1cc(Nc2c(C#N)cnc3cc(OCCCN4CCN(C)CC4)c(OC)cc23)c(Cl)cc1Cl | 105 | 96 | 43.1 | 22.9 | 28.9 | 104 | 99.4 | 109 | 78 | 52.8 | 129 | 83.9 | 110 | 101 | 111 | 101 | 94.7 | 86 | 95.7 | 112 | residual activity (PDGFRB (human)): 74.8%; residual activity (CAMK1 (human)): 68.9%; residual activity (CDK1 CCNB1 (human)): 95.9%; residual activity (CDK6 CCND3 (human)): 122%; residual activity (FGFR2 (human)): 58.1%; residual activity (CDK2 CCNA2 (human)): 91.1%; residual activity (ERBB4 (human)): 1.53%; residual activity (TNK2 (human)): 3.54%; residual activity (MYLK2 (human)): 32.1%; residual activity (TGFBR2 (human)): 95.7%; residual activity (IRAK1 (human)): 91.3%; residual activity (CDK5 CDK5R1 p35 (human)): 98.3%; residual activity (CAMKK2 (human)): 85.1%; residual activity (MAPKAPK3 (human)): 98.2%; residual activity (CDK9 CCNK (human)): 102%; residual activity (PKN1 (human)): 74.2%; residual activity (PKN2 (human)): 105%; residual activity (EPHB1 (human)): 11.8%; residual activity (CDK7 CCNH MNAT1 (human)): 113%
5 | N#C/C(=C\c1ccc(O)c(O)c1)C(=O)NCc1ccccc1 | 99.7 | 96.9 | 100 | 100 | 89 | 103 | 96.4 | 93.8 | 100 | 95.1 | 109 | 90 | 103 | 103 | 101 | 98.7 | 94.2 | 92.2 | 104 | 99.4 | residual activity (PDGFRB (human)): 100%; residual activity (CAMK1 (human)): 93%; residual activity (CDK1 CCNB1 (human)): 96.9%; residual activity (CDK6 CCND3 (human)): 104%; residual activity (FGFR2 (human)): 98.1%; residual activity (CDK2 CCNA2 (human)): 99.2%; residual activity (PAK3 (human)): 101%; residual activity (ERBB4 (human)): 80.9%; residual activity (TNK2 (human)): 98.3%; residual activity (MYLK2 (human)): 97.9%; residual activity (TGFBR2 (human)): 111%; residual activity (IRAK1 (human)): 154%; residual activity (CDK5 CDK5R1 p35 (human)): 99.8%; residual activity (CAMKK2 (human)): 97.4%; residual activity (MAPKAPK3 (human)): 102%; residual activity (CDK9 CCNK (human)): 102%; residual activity (PKN1 (human)): 97.6%; residual activity (NEK11 (human)): 95.4%; residual activity (EPHB1 (human)): 87.4%; residual activity (CDK7 CCNH MNAT1 (human)): 120%
